Here are results for 88 compounds from PubChem BioAssay AID2305 (GlaxoSmithKline (GSK), 2010).

pIC50: −log10 of the molar value.

Broadly, the pIC50 is −log10 of the IC50, conventionally taken in molar units. Lower therefore signals a large IC50.

The assay concerns P. falciparum 3D7 growth, pLDH absorbance. As to the kind of experiment: blood-stage malaria parasite growth potency – strain 3D7, dose response (AID 2305).
Consider `O=C(CCC1CCCC1)N(Cc1ccc(-c2ccc(CNCCc3ccccc3)cc2)cc1)C1CCCNC1` (stereo not drawn), for which the pIC50 was 5.91. Then `c1cc2nc(CCCCc3nc4ccc(C5=N[C@H]6CCCC[C@H]6N5)cc4[nH]3)[nH]c2cc1C1=N[C@H]2CCCC[C@H]2N1`, with 6.39; and `O=C(COc1ccc(Cl)c(Cl)c1)NCCCCCN1CCCN(C(=O)Nc2cc(Cl)cc(Cl)c2)CC1`, with 5.94. Then `CC[C@H]1CN2CC[C@H]1C[C@H]2[C@H](O)c1cc(-c2cccc(F)c2)nc2ccc(OC)cc12`, with 7.22; and `Cc1cccc2[nH]c(-c3ccc(-c4cccc(CN5CC(C)OC(C)C5)c4)s3)nc12` (stereo not drawn), with 6.12. Then `COc1c(C2CCN(CCCCNC(=O)c3cccc(-c4ccc(C(F)(F)F)cc4)c3)CC2)ccc2c1CCCC2`, with 6.11. On to `Nc1nc(N)c2nc(C3CC=CCC3)c(N)nc2n1` (stereo not drawn), for which the pIC50 was 6.80.

The compound `O=C(/C=C/c1ccccc1)N1CCOC(CCN2CCC(c3ccccc3)CC2)(c2ccc(Cl)c(Cl)c2)C1` (stereo not drawn) showed a pIC50 of 6.28.

`COc1cccc(C=NNc2cc(C)nc3c(OC)cccc23)c1` had a pIC50 of 6.24.

`O=[N+]([O-])c1ccc(C=NO)nc1` showed a pIC50 of 6.06. Turning to `O=C(Nc1ccc(OC2CCN(Cc3ccsc3)C2)c(Cl)c1)c1ccc2ncccc2c1` (stereo not drawn), the pIC50 is 6.01.

`Clc1cc(Nc2ncnc3cc(C#C[C@H]4CCCN4)sc23)cc2[nH]c(Cc3ccccc3)nc12` gave a negative-log IC50 (pIC50) of 6.07. For `COc1cccc2cc(C(=O)N[C@@H](CC(C)C)C(=O)N[C@H](/C=N/NC(=O)Cc3cccnc3)CCc3ccccc3)oc12`, the pIC50 was 6.02. Then `N#CC(c1ccc(Br)cc1)c1ccc2c(C(F)(F)F)cc(C(F)(F)F)nc2n1` (stereo not drawn), with 6.36; and `COc1ccc2nccc([C@@H](O)CN3CCC(NC(=O)c4cc5cccnc5[nH]4)CC3)c2c1`, with 6.05. Then `Cc1ccc2nc(-c3cc(-c4cccc(C#N)c4)cnc3N)[nH]c2c1`, with 6.92. Then `Brc1cnc(NC2=NCCN2)c(Br)c1`, with 6.47. `CC(CO)(CO)NCc1cc2c3ccccc3c(CNC(C)(CO)CO)cc2c2ccccc12` had a pIC50 of 6.14.

Regarding `Nc1nc2c(c(=O)[nH]1)CN(S(=O)(=O)c1ccc(C(=O)N[C@@H](CCC(=O)O)C(=O)O)cc1)CC2`, the negative-log IC50 (pIC50) is 6.82. The compound `Cc1[nH]c(C)c(-c2ccc(OCc3ccccc3)cc2)c(=O)c1Br` showed a pIC50 of 6.55. This pIC50 is 0.27 log units lower than that of the compound before.

As for `Cc1nc2nc(N)nc(N)c2c(C)c1Cc1ccccc1Br`, the pIC50 is 7.22. Compared with the last compound, the pIC50 is 0.67 log units higher. Consider `Cc1cc(C)c(C(=O)Nc2n[nH]c3nnc(-c4cccc(F)c4F)cc23)c(C)c1`, for which the pIC50 was 5.97. As for `O=C(NCCN1CCCc2ccccc21)C1CCN(c2nc(-c3ccc(Cl)cc3)no2)CC1`, the figure is 6.16; as for `CN1CCN(CCCN(Cc2ccc(-c3cccc(CNCc4ccc5c(c4)OCO5)c3)cc2)C(=O)NCCc2ccccc2)CC1`, 6.08.

`Cc1ccc(C(=O)Nc2ccc(Nc3ccnc4cc(-c5ccncc5)ccc34)cc2O)cc1` gave a pIC50 of 6.03.

Regarding `CC(C)NCc1ccc(-c2ccc(-c3nc4ccc(F)cc4[nH]3)cc2)cc1`, the negative-log IC50 (pIC50) is 6.68. As for `CC(=O)Nc1cccc(CNCc2ccc(-c3cnc(N4CCCC(c5ccccc5)C4)nc3)cc2)c1` (stereo not drawn), the figure is 5.92; as for `c1ccc(CNCc2ccc(-c3cccc(-c4nc5ccccc5[nH]4)c3)cc2)cc1`, 6.38; as for `Cc1cccc(-c2c(C)nc(N)nc2N)c1`, 5.94.

Compound `CCC[C@@H]([C@@H](CC(C)C)C(=O)N[C@@H](CCCCNC(=O)c1cccc(OC)c1)C(=O)Nc1nccs1)N(O)C=O` showed a pIC50 of 7.00. Compound `C=CCOc1ccc(C(=O)Nc2nonc2-c2ccc(OC)c(OC)c2)cc1` had a pIC50 of 6.19. As for `O=C(NC1CCC(CN2CCC(c3c[nH]c4ccccc34)CC2)CC1)c1cc2ccccc2o1` (stereo not drawn), the figure is 6.01; as for `COCCNC(=O)c1ccc(OC2CCN(Cc3ccc(F)c(F)c3)CC2)c(Cl)c1`, 5.83; as for `COc1ccc(NC(=O)[C@H](Cc2ccccc2)Nc2cc(C)nc(NCC3CCCCC3)n2)cc1`, 6.17. As for `c1cn(CCCNc2ncc(-c3ccsc3)c(-c3nccs3)n2)cn1`, the figure is 6.19; as for `CC(C)c1cccc(C(C)C)c1NC(=O)NNC(=O)c1ccc(CCN2CCC(c3nc(COCC(F)(F)F)c(-c4ccc(F)cc4)o3)CC2)cc1`, 5.96; as for `COc1cc2nc(N3CCC(CNC(=O)c4ccc(-c5ccc(-c6noc(C)n6)cc5)cc4)CC3)nc(N)c2cc1OC`, 6.85. As for `Cc1nc2nc(N)nc(N)c2c(C)c1Cc1ccccc1I`, the figure is 6.46; as for `Cn1nc(-c2cccc(CN[C@@H]3CCc4ccc(O)cc43)c2)c2cnc(NC3CCCC3)nc21`, 6.13. `CN(Cc1cccc(O)c1)C1CCN(c2cc(NC(=O)c3ccc(F)cc3)ccn2)CC1` gave a pIC50 of 6.02. The pIC50 values of the last two compounds are within 0.2 log units of each other.

Consider `Cc1noc(NC(=O)c2sc3ccccc3c2O)c1C`, for which the pIC50 was 6.07. Then `CC(C)CNCc1ccc(-c2ccc(CNC3CCN(Cc4ccccc4)CC3)cc2)cc1`, with 6.25; and `COC(=O)c1ccc(CC(C)NCC(O)c2cccc(C(F)(F)F)c2)cc1F` (stereo not drawn), with 5.97. Then `Fc1ccc2nc(-c3cccc(-c4ccc(CN5CCC(CCN6CCCCC6)CC5)cc4)c3)[nH]c2c1`, with 6.85; and `Cc1ccc(C2=NNC3(S2)C(=O)Nc2ccc(C)cc23)cc1` (stereo not drawn), with 5.99; and `O=C(NC1CC1)c1ccc(Cn2c(SCc3cccc([N+](=O)[O-])c3)nc3ccccc3c2=O)cc1`, with 6.12. `CN1CCN(Cc2ccc(-c3cc4c(Nc5ccc(OCc6cccc(F)c6)c(Cl)c5)ncnc4s3)[nH]2)CC1` showed a pIC50 of 6.11. The pIC50 values of the last two compounds are within 0.2 log units of each other. `COCCNCc1ccc(-c2ccc3c(Nc4ccc(Cl)cc4F)ccnc3c2)o1`: the pIC50 is 6.68. Compared with the last compound, the pIC50 is 0.57 log units higher. Compound `CCOC(=O)c1ccc(NC(=O)Nc2cccc(-c3ccc(-c4nc5ccc(C(F)(F)F)cc5[nH]4)cc3)c2)cc1` showed a pIC50 of 6.68. As for `CCc1nc(N)nc(N)c1-c1ccc(F)cc1`, the figure is 6.39. Then `CC(C)N1CCN(C(CN2CCN(CCCOc3ccc4ccccc4c3)CC2)c2ccc(F)cc2)CC1` (stereo not drawn), with 6.24; and `Cc1ccc(C(=O)Nc2ccc(C)c(OC3CCN(Cc4ccco4)C3)c2)cc1` (stereo not drawn), with 6.01. As for `CC(C)CCN1CCC(Oc2ccc(NC(=O)c3cccs3)cc2Cl)C1` (stereo not drawn), the figure is 5.96; as for `Cc1noc(C)c1-c1ccc2c(Nc3cccc4c3-c3ccccc3C4=O)c(C(=O)NCc3ccccc3I)cnc2c1`, 6.20; as for `CC(=O)c1sc2ccccc2c1O`, 6.06. The compound `c1ccc(CC2=NCCN2)cc1` gave a pIC50 of 6.72.

For the compound `CN(C)CCN(C)Cc1ccc(-c2ccc(NC(=O)c3ccc(Cl)cc3)cc2)cc1`, the negative logarithm of the IC50 (pIC50) was 6.03.

Take `COc1ccc(-c2cccc(NC(=O)c3ccc(Cl)cc3)c2)cc1CN(C)CCN(C)C`: the pIC50 is 6.11. As for `COc1ccc2nc(N(CCCn3ccnc3)C(=O)C=Cc3cccs3)sc2c1`, the figure is 5.98; as for `CN(C)CCCOc1ccc(CNCc2cccc(Oc3ccc(Cl)cc3)c2)cc1`, 6.09; as for `Cc1nc2ccccc2c(=O)n1N=Cc1ccccc1[N+](=O)[O-]`, 6.66.

`CO/C(=C\C=C\c1cc2cc(Cl)c(Cl)cc2[nH]1)C(=O)NCCCN1CCN(c2cccc(CCO)c2)CC1` had a pIC50 of 6.14. Then `COc1c(CNCCCCCCNCc2cc(Cl)c3ccccc3c2OC)cc(Cl)c2ccccc12`, with 6.03; and `CCOc1ccc(C(C)NC(=O)Cc2ccccc2F)cc1OCC` (stereo not drawn), with 6.08; and `CN1C(=O)[C@H](NC(=O)[C@@H](Cc2ccccc2)NC(=S)Nc2ccccc2)N=C(c2ccccc2)c2ccccc21`, with 6.07. `Cc1cnccc1/C=C/c1cccc(OCCCN2CCc3ccc(S(C)(=O)=O)cc3CC2)c1` showed a pIC50 of 6.21.

With `Cc1ccc(C(=O)Nc2ccc(Cl)c(N3CCN(CCc4ccccc4)CC3)c2)cc1`, the pIC50 was 6.03.

As to `CC1(CCCCN2CC=C(c3c[nH]c4ccccc34)CC2)C(=O)Nc2ccccc21` (stereo not drawn), the pIC50 was 6.85. As for `CN(Cc1ccncc1)C(Cc1ccccc1)C1CCN(Cc2ccc(O)c(Cl)c2)CC1` (stereo not drawn), the figure is 6.12; as for `CC1CC(NCCCNc2cc(=O)c3ccccc3[nH]2)c2c(Cl)c(Cl)cc(Cl)c21` (stereo not drawn), 6.01; as for `Cc1ccc(NC(=O)Nc2ccc(S(=O)(=O)c3ccc(NC(=O)Nc4ccc(C)c(Cl)c4)cc3)cc2)cc1Cl`, 6.12. Then `CC(C)NCc1cccc(-c2cccc(NC(=O)c3cccc(C#N)c3)c2)c1`, with 6.09. Then `CC[C@H]1CN2CC[C@H]1C[C@H]2[C@H](O)c1ccnc2ccc(O)cc12`, with 6.19; and `NC1CCN(Cc2cccc(-c3cccc(-c4nc5ccccc5[nH]4)c3)c2)C1` (stereo not drawn), with 6.10; and `CCCC(C(=O)OCCNC)(c1ccccc1)c1ccccc1`, with 6.05.

As for `CCc1nc(N)nc(N)c1-c1ccccc1`, the pIC50 is 5.93.

As for `NC(N)=Nc1ccc(OCCCCCOc2ccc(N=C(N)N)cc2)cc1`, the negative-log IC50 (pIC50) was 6.72.

In the case of `c1cc(-c2ccc(CNC3CC3)cc2)cc(-c2nc3ccccc3[nH]2)c1`, the pIC50 was 5.78. `NC(N)=NC(=O)Nc1cc(Br)c(Cl)c(Br)c1` had a pIC50 of 6.11. As for `c1ccc2c(CNCCCN3CCN(CCCNCc4c5ccccc5cc5ccccc45)CC3)c3ccccc3cc2c1`, the figure is 6.74. As for `COc1ccnc(NCCCNCc2cn(S(=O)(=O)c3ccccc3)c3ccccc23)c1`, the figure is 6.10; as for `COc1ccc(CNc2nc(Nc3cccc(C#N)c3)nc(Nc3cccc(C#N)c3)n2)cc1Cl`, 6.74; as for `COc1ccc(CNCCc2cccs2)cc1-c1ccc(OC)c(S(=O)(=O)NCCN2CCCC2)c1`, 5.85. `CC(C)(C)CC(C)(C)c1ccc(O)c(CNC2CCCCC2)c1` had a pIC50 of 7.22. Then `O=C(Nc1cccc(CN2CCCN(Cc3cccc(O)c3)CC2)c1)c1ccc(-c2ccccc2)cc1`, with 6.19; and `CCc1cccc2sc(N3CCN(C(=O)c4ccc([N+](=O)[O-])o4)CC3)nc12`, with 6.11; and `CCCc1cc(OC)c(C[C@@H]2c3cc(O)c(Cl)cc3CCN2C)cc1OC`, with 6.14. In turn, `CN(c1ccccc1)S(=O)(=O)c1cccc(NC(=O)c2ccc(-n3ccnc3)c([N+](=O)[O-])c2)c1` gave a pIC50 of 5.95.
